Where only a bound is given, the exact number is not on record here.

The results in this text go back to ChEMBL document CHEMBL1143732, “3-Hydroxy-1,5-dihydro-pyrrol-2-one derivatives as advanced inhibitors of HIV integrase” (Bioorg Med Chem, 2007).

Assay [1] in a line: Inhibition of HIV integrase by MWPA-Mn enzymatic assay. Also on record: species or system Human immunodeficiency virus.
A short description of assay [2]: Inhibition of HIV integrase by MWPA-Mg enzymatic assay. Also on record: species or system Human immunodeficiency virus.
Assay [3] concerns Human immunodeficiency virus. Nature of the assay: Antiviral activity against HIV. Format: functional, organism-based. Particulars: Human immunodeficiency virus 1.

For the molecule `O=C(O)/C(O)=C/c1ccc(OCc2ccc(F)cc2)cn1`, the IC50 (in general, the point on the concentration scale where inhibition reaches its midpoint) in assay [1] was found to be 66 nM; in assay [2], 480 nM. For the same molecule, the EC50 – broadly, the midpoint of the concentration-response curve – in assay [3] stood at 45700 nM.
As for `CNC(=O)/C(O)=C/c1cc(CCc2ccccc2)ncn1`, the IC50 in assay [1] was 39000 nM; in assay [2], 11000 nM. It took 24000 nM to reach a half-maximal effect in assay [3] (EC50).
`O=C1NCC(c2cc(OCc3ccc(F)cc3)ncn2)=C1O` showed an IC50 in assay [2] of 40 nM. The response in assay [3] was half-maximal at 240 nM (EC50).
On to `O=C(/C=C(\O)c1nc[nH]n1)c1ccc(Cc2ccc(F)cc2)o1` [S-1360], for which a half-maximal response in assay [3] (EC50) required 200 nM.
For `O=C1NCC(C(=O)c2ccc(Cc3ccc(F)cc3)o2)=C1O`, in assay [2], the IC50 was 100 nM. Besides, the EC50 in assay [3] was determined as 930 nM.
As to `O=C(O)/C(O)=C/c1ccc(Oc2ccc(F)cc2)cn1`, the IC50 in assay [1] is 110 nM; in assay [2], 8700 nM. In addition, the EC50 in assay [3] is above 73000 nM.
For `O=C(C1=C(O)C(=O)N(CCO)C1)c1ccc(Cc2ccc(F)cc2)o1`, in assay [2], it took 75 nM to reach half-maximal inhibition (IC50). The molecule also had an EC50 in assay [3] of 5500 nM.
With `O=C(O)/C(O)=C/c1cc(CCc2ccccc2)ncn1`, the IC50 in assay [1] turned out to be 37 nM; in assay [2], 9600 nM. This molecule returned an EC50 in assay [3] of 34000 nM.
For `CN1CC(c2ccc(Oc3ccc(F)cc3)cn2)=C(O)C1=O`, in that order: below 21 nM, 80 nM and 1900 nM.
In turn, `COc1ccc(N2CC(C(=O)c3ccc(Cc4ccc(F)cc4)o3)=C(O)C2=O)cc1` yielded an IC50 in assay [2] of 170 nM. Moreover, it took 13000 nM to reach a half-maximal effect in assay [3] (EC50).
In turn, `O=C(C1=C(O)C(=O)N(Cc2ccccc2)C1)c1ccc(Cc2ccc(F)cc2)o1` gave an IC50 in assay [2] of 180 nM. In assay [3], this molecule showed an EC50 of 7400 nM.
For `CC(C)N1CC(C(=O)c2ccc(Cc3ccc(F)cc3)o2)=C(O)C1=O`, in that order: 79 nM and 550 nM.
`O=C(C1=C(O)C(=O)N(C2CCCC2)C1)c1ccc(Cc2ccc(F)cc2)o1` displayed an IC50 in assay [2] of 130 nM. Moreover, the EC50 in assay [3] amounted to 1500 nM.
`O=C(C1=C(O)C(=O)N(CCN2CCOCC2)C1)c1ccc(Cc2ccc(F)cc2)o1`: the IC50 in assay [2] was found to be 180 nM. Besides, it took 3400 nM to reach a half-maximal effect in assay [3] (EC50).
For `COCCN1CC(c2cc(OCc3ccc(F)cc3)ncn2)=C(O)C1=O`, in that order: 53 nM and 470 nM.
In the case of `COCCN1CC(C(=O)c2ccc(Cc3ccc(F)cc3)o2)=C(O)C1=O`, the IC50 in assay [2] was 160 nM. The molecule also showed an EC50 in assay [3] of 670 nM.
For the molecule `O=C(/C(O)=C/c1cc(CCc2ccccc2)ncn1)N1CCOCC1`, the IC50 is 262000 nM in assay [1] and 236000 nM in assay [2]. The EC50 in assay [3] is above 59000 nM.
The molecule `COc1ccc(CN2CC(c3cc(OCc4ccc(F)cc4)ncn3)=C(O)C2=O)cc1` registered an IC50 in assay [2] of 140 nM. In assay [3], this molecule gave a half-maximal effective concentration (EC50) of 3300 nM.
Take `O=C(O)/C(O)=C/c1cc(CCc2ccc(F)cc2)ccn1`: the IC50 in assay [1] stood at 59 nM; in assay [2] it was 1800 nM. This molecule also showed an EC50 in assay [3] of 27000 nM.
Consider `CN1CC(c2ccc(Cc3ccc(F)cc3)cn2)=C(O)C1=O`, for which the values for the IC50 in assay [1] and in assay [2] were below 21 nM and 37 nM, respectively. Moreover, a half-maximal response in assay [3] (EC50) required 170 nM.
Consider `O=C(O)/C(O)=C/c1ccc(Cc2ccc(F)cc2)cn1`, for which the IC50 is 95 nM in assay [1] and 1400 nM in assay [2]. For the same molecule, the EC50 in assay [3] worked out at 8800 nM.
On to `CN1CC(c2ccc(OCc3ccc(F)cc3)cn2)=C(O)C1=O`, for which the IC50 is below 21 nM in assay [1] and 30 nM in assay [2]. The molecule also yielded an EC50 in assay [3] of 180 nM.
For the molecule `NC(=O)/C(O)=C/c1cc(CCc2ccccc2)ncn1`, the IC50 in assay [1] was 71000 nM; in assay [2], 6700 nM. Besides, the response in assay [3] was half-maximal at 49000 nM (EC50).
Take `CN1CC(c2cc(CCc3ccc(F)cc3)ncn2)=C(O)C1=O`: the IC50 in assay [1] and in assay [2] was 320 nM throughout. The molecule further yielded an EC50 in assay [3] of 800 nM.
With `CCCN1CC(c2cc(OCc3ccc(F)cc3)ncn2)=C(O)C1=O`, the IC50 in assay [2] worked out at 270 nM. In assay [3], this molecule showed an EC50 of 9000 nM.
In the case of `CN1CC(c2cc(OCc3ccc(F)cc3)ncn2)=C(O)C1=O`, the IC50 is 300 nM in assay [1] and 63 nM in assay [2]. This molecule also had an EC50 in assay [3] of 320 nM.
In assay [2], `CN1CC(C(=O)c2ccc(Cc3ccc(F)cc3)o2)=C(O)C1=O` registered an IC50 of 82 nM. Moreover, the EC50 in assay [3] stood at 630 nM.
`CC(C)N1CC(c2cc(OCc3ccc(F)cc3)ncn2)=C(O)C1=O` came in with an IC50 in assay [2] of 82 nM. The molecule also had an EC50 in assay [3] of 1400 nM.
Take `O=C(O)/C(O)=C/c1cc(OCc2ccc(F)cc2)ccn1`: the values for the IC50 in assay [1] and in assay [2] were 14 nM and 93 nM, respectively. In assay [3], this molecule registered an EC50 of 7900 nM.
In assay [2], `O=C1C(O)=C(c2cc(OCc3ccc(F)cc3)ncn2)CN1CCO` had an IC50 of 46 nM. Besides, in assay [3], the EC50 stood at 380 nM.
